Experimental data from US9440969B2, “Compounds and methods for kinase modulation, and indications therefor” (PLEXXIKON INC., priority 2009, dated 2016).

target: CYP3A4(BQ) (Homo sapiens, UniProt P08684); test: CYP3A4 inhibition (substrate BQ); format: in vitro ADME; details: read-out: Cyp IC50 (μM) 3A4(BQ)
Protocol: CYP (Cytochrome P450) enzymes are the major drug metabolizing enzymes present in the liver. The inhibition of CYP enzyme activity (IC50) for each of CYP1A2, CYP2C19, CYP2C9, CYP2D6, CYP3A4(BFC) and CYP3A4(BQ) is determined for compounds, where inhibition of metabolism of a known substrate leads to a decrease in the fluorescence of the metabolized product. The fluorescence of the product is monitored as a function of compound concentration. Compounds are dissolved in dimethyl sulfoxide to a concentration of 100 mM. These are diluted […], into 82 μL of acetonitrile. An 11 μL aliquot of this solution is then added to 204 μL of cofactor mix (1.3% NADPH Regeneration system Solution A, 1.04% NADPH Regeneration system Solution B from BD Biosciences, 5% acetonitrile and 0.05% dimethyl sulfoxide). These are then serially diluted 1:1 (160 μL to 160 μL co-factor mix) for a total of 10 points. A 10 μL aliquot of this final mixture is dispensed into 384 well assay plates and incubated for 10 minutes at 37° C. Enzyme and substrate mix (10 μL; 0.5 pmol CYP1A2/5 μM CEC; 1.0 pmol CYP2C9/75 μM MFC; 0.5 pmol CYP2C19/25 μM CEC; 1.5 pmol CYP2D6/1.5 μM AMMC; 1.0 pmol CYP3A4/50 μM BFC; or 1.0 pmol CYP3A4/40 μM BQ) is added to these assay plates. Assay plates are incubated at 37° C. (CYP1A2-15 min; CYP2C9-45 min; CYP2C19, 2D6 and 3A4-30 min) and read in a Tecan Safire 2 plate reader (CYP1A2, 2C19 and 3A4 409 ex/460 em; CYP2C9 and 2D6 409 ex/530 em). The signal versus compound concentration is used to determine the IC50. The enzymes and substrates for this assay are obtained from BD Biosciences.

CYP3A4(BQ), sequence (P08684 whole entry): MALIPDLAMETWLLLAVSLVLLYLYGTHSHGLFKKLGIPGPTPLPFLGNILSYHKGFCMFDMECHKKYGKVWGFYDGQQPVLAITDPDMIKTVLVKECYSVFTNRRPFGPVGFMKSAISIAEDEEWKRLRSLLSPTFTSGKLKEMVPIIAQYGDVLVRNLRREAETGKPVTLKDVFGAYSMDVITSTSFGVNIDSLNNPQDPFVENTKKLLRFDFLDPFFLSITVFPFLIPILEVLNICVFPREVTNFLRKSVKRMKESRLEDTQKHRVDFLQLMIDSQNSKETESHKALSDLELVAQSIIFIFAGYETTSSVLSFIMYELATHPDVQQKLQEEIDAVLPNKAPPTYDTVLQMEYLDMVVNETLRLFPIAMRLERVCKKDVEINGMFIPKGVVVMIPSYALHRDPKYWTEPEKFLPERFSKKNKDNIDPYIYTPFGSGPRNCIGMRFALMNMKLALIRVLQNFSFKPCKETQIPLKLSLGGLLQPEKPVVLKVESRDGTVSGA

SMILES | IC50 [µM]
CCCS(=O)(=O)Nc1ccc(F)c(C(=O)c2c[nH]c3ncc(-c4cnn(C5CCNCC5)c4)cc23)c1F [P-1002, Propane-1-sulfonic acid {2,4-difluoro-3-[5-(1-piperidin-4-yl-1H-pyrazol-4-yl)-1H-pyrrolo[2,3-b]pyridine-3-carbonyl]-phenyl}-amide] | > 10
O=C(c1c(F)ccc(NS(=O)(=O)c2ccc(C(F)(F)F)cc2)c1F)c1c[nH]c2ncc(-c3cnn(C4CCNCC4)c3)cc12 [P-1004, N-{2,4-Difluoro-3-[5-(1-piperidin-4-yl-1H-pyrazol-4-yl)-1H-pyrrolo[2,3-b]pyridine-3-carbonyl]-phenyl}-4-trifluoromethyl-benzenesulfonamide] | > 10
Cc1ncc(-c2cnc3[nH]cc(C(=O)c4c(F)ccc(NS(=O)(=O)c5cc(F)ccc5F)c4F)c3c2)cn1 [P-1503, N-{2,4-Difluoro-3-[5-(2-methyl-pyrimidin-5-yl)-1H-pyrrolo[2,3-b]pyridine-3-carbonyl]-phenyl}-2,5-difluoro-benzenesulfonamide] | > 10
CCCS(=O)(=O)Nc1ccc(F)c(C(=O)c2c[nH]c3ncc(-c4cccc5nn(C)cc45)cc23)c1F [P-0015, Propane-1-sulfonic acid {2,4-difluoro-3-[5-(2-methyl-2H-indazol-4-yl)-1H-pyrrolo[2,3-b]pyridine-3-carbonyl]-phenyl}-amide] | > 10
CCCS(=O)(=O)Nc1ccc(F)c(C(=O)c2c[nH]c3ncc(-c4ccc5ncsc5c4)cc23)c1F [P-0020, Propane-1-sulfonic acid [3-(5-benzothiazol-6-yl-1H-pyrrolo[2,3-b]pyridine-3-carbonyl)-2,4-difluoro-phenyl]-amide] | > 10
CCCS(=O)(=O)Nc1ccc(F)c(C(=O)c2c[nH]c3ncc(-c4ccc5cncnc5c4)cc23)c1F [P-0025, Propane-1-sulfonic acid [2,4-difluoro-3-(5-quinazolin-7-yl-1H-pyrrolo[2,3-b]pyridine-3-carbonyl)-phenyl]-amide] | > 10
Cc1ccc(-c2cnc3[nH]cc(C(=O)c4c(F)ccc(NS(=O)(=O)c5cc(F)ccc5F)c4F)c3c2)cn1 [P-1408, N-{2,4-Difluoro-3-[5-(6-methyl-pyridin-3-yl)-1H-pyrrolo[2,3-b]pyridine-3-carbonyl]-phenyl}-2,5-difluoro-benzenesulfonamide] | > 10
CCCS(=O)(=O)Nc1ccc(F)c(C(=O)c2c[nH]c3ncc(-c4ccc5[nH]ccc5c4)cc23)c1F [P-0012, Propane-1-sulfonic acid {2,4-difluoro-3-[5-(1H-indol-5-yl)-1H-pyrrolo[2,3-b]pyridine-3-carbonyl]-phenyl}-amide] | > 10
CCCS(=O)(=O)Nc1ccc(F)c(C(=O)c2c[nH]c3ncc(-c4ccc5[nH]cc(C)c5c4)cc23)c1F [P-0023, Propane-1-sulfonic acid {2,4-difluoro-3-[5-(3-methyl-1H-indol-5-yl)-1H-pyrrolo[2,3-b]pyridine-3-carbonyl]-phenyl}-amide] | > 10
CCCS(=O)(=O)Nc1ccc(F)c(C(=O)c2c[nH]c3ncc(-c4ccc5cn(C)nc5c4)cc23)c1F [P-0011, Propane-1-sulfonic acid {2,4-difluoro-3-[5-(2-methyl-2H-indazol-6-yl)-1H-pyrrolo[2,3-b]pyridine-3-carbonyl]-phenyl}-amide] | > 10
CCCS(=O)(=O)Nc1ccc(F)c(C(=O)c2c[nH]c3ncc(-c4ccc5nn(C)cc5c4)cc23)c1F [P-0010, Propane-1-sulfonic acid {2,4-difluoro-3-[5-(2-methyl-2H-indazol-5-yl)-1H-pyrrolo[2,3-b]pyridine-3-carbonyl]-phenyl}-amide] | > 10
